By LD50 is commonly meant the dose expected to kill half of the subjects tested.

Each structure is given as a SMILES string.

Data set [1] has as its system plasma insulin. Kind of data set: Acute administration without glucose bolus in fasted rats: plasma insulin. In kind it is in vivo, rat (male Sprague Dawley). The conditions noted are these: acute i.v. administration. On the procedure: (§1) Male Sprague Dawley rats (200-250 g, Canadian Breeding Laboratories, St. Constant, Quebec, Canada) were used in the experiment. There were 11 animals in the group. The animals were kept in a room with constant light-dark cycle and temperature. They were allowed food (Purina Lab Chow™) and water ad libitum for at least three days before being utilized. The animals were then fasted for 24 hours and anaesthetized with nembutal (50 mg/kg, intraperitoneally; Abbott Laboratories, Montreal, Quebec, Canada.) The jugular veins were exposed and a fasting blood sample was drawn by the transmusculature puncture method, Y. Kato, J. Dupre and J. C. Beck, Endocrinology, 93, 135 (1973), employing a sodium heparin (The Upjohn Company, Don Mills, Ontario, Canada) washed syringe. […]
(§2) Plasma insulin was measured by radioimmunoassay using a charcoal separation method, V. Herbert et al, J. Clin. Endocrinol., 25, 1375 (1965). […] Plasma glucose was measured by a glucose oxidase method employing a Beckman Glucose Analyser, see Beckman Company Manual, Palo Alto, Calif., U.S.A.
(§3) The results, noted below, are expressed as mean± S.E.M. The statistical significance of changes in the concentration of plasma glucose (mg/100 ml) and insulin (μU/ml), in response to alrestatin or the vehicle, from basal fasting values was determined on the differences between group means by the Student's […]. […]

The subject of another data set is plasma glucose. Nature of the data set: Acute administration without glucose bolus in fasted rats: plasma glucose. In kind it is in vivo, rat (male Sprague Dawley). The settings on record: acute i.v. administration. How it is done: as §1, §2, §3
The nature of the next data set: LD50 in rats. The conditions noted are these: rat, in vivo. The text has this:
Therefore, a good therapeutic index of safety is present.

The next data set deals with aldose reductase. The conditions noted are these: previously reported; cited from earlier work.
The next data set has as its system plasma glucagon. Nature of the data set: Arginine-induced glucagon release in intact rats. It counts as in vivo, rat (male Sprague-Dawley). The settings on record: arginine 100 mg/100 g i.v., 5 min. How it is done: (§4) After light deithyl ether anaesthetization, the animals were injected with a bolus of saline or alrestatin (sodium salt form in 0.3 ml saline/100 g of body weight) in the external jugular vein followed immediately with a bolus of arginine-HCl (British Drug House ) at a dose of 100 mg/100 g of body weight, cf. […] Vehicle control animals received a second injection of saline. Five minutes later trunk blood was collected by decapitation into chilled tubes containing sodium heparin (Upjohn) and aprotinin(Trasylol™, Boehringer-Ingelheim Dorval, Quebec, Canada) (20 U and 1000 KIU per ml whole blood, respectively). Plasma was collected after centrifugation, stored at -20° C. and assayed for immunoreactive glucagon and insulin levels within 2 weeks.
(§5) Rat insulin purchased from Novo A/S, Copenhagen, Denmark, was used as unlabelled standard. […] Glucagon antiserum (Antiserum 30K, purchased from Dr. R. H. Unger, Houston, Tex., U.S.A.) was employed in the assay. […] Metab. […] Metab. […] Antibody bound hormone was separated from free hormone by conventional charcoal-dextran methods.

For data set [2], the system named is plasma insulin. Kind of data set: Arginine-induced insulin release in intact rats. It counts as in vivo, rat (male Sprague-Dawley). The settings on record: arginine 100 mg/100 g i.v.; 5 min. How it is done:
as §4, §5

Regarding `O=C(O)CN1C(=O)c2cccc3cccc(c23)C1=O` [alrestatin, 1,3-dioxo-1H-benz[de]isoquinoline-2(3H)-acetic acid], in the data set on plasma insulin [1], the “change in basal fasting plasma insulin levels vs vehicle” value is “did not significantly alter”. Also, the “change in plasma glucose levels vs vehicle” value with plasma glucose is on record as “did not significantly alter”. Moreover, the LD50 in “LD50 in rats” (iv, intravenously) was 1220 ± 45 mg/kg; in the data set “LD50 in rats” (po, perorally), more than 2500 mg/kg. The “inhibition of the enzyme aldose reductase” value in the data set with aldose reductase is “inhibitor of the enzyme aldose reductase”.

Consider `N=C(N)NCCC[C@H](N)C(=O)O` [arginine, reference compound], for which the “stimulated glucagon release, mean above plasma hormone concentration in vehicle treated animals” value in the data set on plasma glucagon is given as “about 100 pg/ml”. Further, the plasma glucagon concentration with plasma glucagon (vehicles 180.6±5.8 pg/ml) came to 284.8 ± 13.7 pg/mL. Moreover, in the data set on plasma insulin [2], the “increase of plasma insulin concentration” value was “about 100 μU/ml”.

These data come from patent publication US4405625A, “Method of treating hyperglycemia with 1,3-dioxo-1H-benz[de]isoquinoline-2(3H)-acetic acid” (Ayerst, McKenna and Harrison Limited, priority 1979, dated 1983).
